# Measurements as given in patent US20100267561A1, “HERBICIDAL PYRIDAZINONE DERIVATIVES” (priority 2007, published 2010).
# Columns and labels:
# Format in all cases: in vivo
# [1] = tested on: barnyardgrass (Echinochloa crus-galli); experiment: Test A pre-/postemergence plant response
# From the text: (§1) Seeds of species selected from barnyardgrass (Echinochloa crus-galli), large crabgrass (Digitaria sanguinalis), giant foxtail (Setaria faberi), blackgrass (Alopecurus myosuroides), canarygrass (Phalaris minor), morningglory (Ipomoea coccinea), pigweed (Amaranthus retroflexus), velvetleaf (Abutilon theophrasti), wheat (Triticum aestivum), and corn (Zea mays) were planted into a blend of loam soil and sand and treated preemergence with a directed soil spray using test chemicals formulated in a non-phytotoxic solvent mixture which included a surfactant. At the same time these species were also treated with postemergence applications of test chemicals formulated in the same manner.
# (§2) Plants ranged in height from 2 to 10 cm and were in the one- to two-leaf stage for the postemergence treatment. Treated plants and untreated controls were maintained in a greenhouse for approximately 10 days, after which time all treated plants were compared to untreated controls and visually evaluated for injury. Plant response ratings, summarized in Table A, are based on a 0 to 100 scale where 0 is no effect and 100 is complete control. A dash (-) response means no test results.
# corn (Zea mays) = experiment: Test A pre-/postemergence plant response
# From the text: as §1, §2
# [2] = tested on: giant foxtail (Setaria faberi); experiment: Test A pre-/postemergence plant response
# From the text: as §1, §2
# [3] = tested on: large crabgrass (Digitaria sanguinalis); experiment: Test A pre-/postemergence plant response
# From the text: as §1, §2
# [4] = tested on: morningglory (Ipomoea coccinea); experiment: Test A pre-/postemergence plant response
# From the text: as §1, §2
# [5] = tested on: pigweed (Amaranthus retroflexus); experiment: Test A pre-/postemergence plant response
# From the text: as §1, §2
# [6] = tested on: velvetleaf (Abutilon theophrasti); experiment: Test A pre-/postemergence plant response
# From the text: as §1, §2
# [7] = tested on: wheat (Triticum aestivum); experiment: Test A pre-/postemergence plant response
# From the text: as §1, §2
# [8] = tested on: barnyardgrass (Echinochloa crus-galli); experiment: Test B flooded paddy test plant response
# Summary of the method: (§3)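 Paddy-water application to 2-leaf plants in pots held under 3 cm of flooding; response is a 0–100 visual control rating against controls after 13 to 15 days, and a dash marks a missing result.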
# [9] = tested on: ducksalad (Heteranthera limosa); experiment: Test B flooded paddy test plant response
# Summary of the method: as §3
# rice (Oryza sativa) = experiment: Test B flooded paddy test plant response
# Summary of the method: as §3
# [10] = tested on: umbrella sedge (Cyperus difformis); experiment: Test B flooded paddy test plant response
# Summary of the method: as §3
# [11] = Postemergence, 125 g ai/ha, 0 to 100 scale, 0 no effect, 100 complete control
# [12] = Postemergence, 500 g ai/ha, 0 to 100 scale, 0 no effect, 100 complete control
# [13] = Preemergence, 125 g ai/ha, 0 to 100 scale (0 no effect, 100 complete control)
# [14] = Preemergence, 500 g ai/ha, 0 to 100 scale (0 no effect, 100 complete control)
# [15] = Flood (flooded paddy test), 62 g ai/ha, scale 0 to 100, 0 no effect, 100 complete control
# [16] = Flood (flooded paddy test), 125 g ai/ha, scale 0 to 100, 0 no effect, 100 complete control
# [17] = Flood (flooded paddy test), 250 g ai/ha, scale 0 to 100, 0 no effect, 100 complete control
# [18] = Flood, 31 g ai/ha, scale 0 to 100
# [19] = Postemergence, 31 g ai/ha, 0 to 100 scale, 0 no effect, 100 complete control
# [20] = Preemergence, 31 g ai/ha, 0 to 100 scale, 0 is no effect, 100 is complete control
smiles,measurement,setting,value
CCc1cc(-c2ccc(Cl)c(Cl)c2)nn1-c1c(OC(=O)OC(C)C)cnn(C)c1=O [Compound 22],"Plant response rating, Barnyardgrass",[1]; [11],50
same,"Plant response rating, Barnyardgrass",[1]; [12],90
same,"Plant response rating, Barnyardgrass",[1]; [13],30
same,"Plant response rating, Barnyardgrass",[1]; [14],100
same,"Plant response rating, Corn",corn (Zea mays); [11],20
same,"Plant response rating, Corn",corn (Zea mays); [12],90
same,"Plant response rating, Corn",corn (Zea mays); [13],30
same,"Plant response rating, Corn",corn (Zea mays); [14],70
same,"Plant response rating, Foxtail, Giant",[2]; [11],60
same,"Plant response rating, Foxtail, Giant",[2]; [12],80
same,"Plant response rating, Foxtail, Giant",[2]; [13],90
same,"Plant response rating, Foxtail, Giant",[2]; [14],100
same,"Plant response rating, Crabgrass, Large",[3]; [11],10
same,"Plant response rating, Crabgrass, Large",[3]; [12],80
same,"Plant response rating, Crabgrass, Large",[3]; [13],50
same,"Plant response rating, Crabgrass, Large",[3]; [14],90
same,"Plant response rating, Morningglory",[4]; [11],0
same,"Plant response rating, Morningglory",[4]; [12],0
same,"Plant response rating, Morningglory",[4]; [13],0
same,"Plant response rating, Morningglory",[4]; [14],0
same,"Plant response rating, Pigweed",[5]; [11],0
same,"Plant response rating, Pigweed",[5]; [12],0
same,"Plant response rating, Pigweed",[5]; [13],0
same,"Plant response rating, Pigweed",[5]; [14],0
same,"Plant response rating, Velvetleaf",[6]; [11],0
same,"Plant response rating, Velvetleaf",[6]; [12],0
same,"Plant response rating, Velvetleaf",[6]; [13],0
same,"Plant response rating, Velvetleaf",[6]; [14],0
same,"Plant response rating, Wheat",[7]; [11],20
same,"Plant response rating, Wheat",[7]; [12],60
same,"Plant response rating, Wheat",[7]; [13],40
same,"Plant response rating, Wheat",[7]; [14],70
same,"Plant response rating, Barnyardgrass",[8]; [15],0
same,"Plant response rating, Barnyardgrass",[8]; [16],0
same,"Plant response rating, Barnyardgrass",[8]; [17],0
same,"Plant response rating, Barnyardgrass",[8]; [18],0
same,"Plant response rating, Ducksalad",[9]; [15],0
same,"Plant response rating, Ducksalad",[9]; [16],0
same,"Plant response rating, Ducksalad",[9]; [17],0
same,"Plant response rating, Ducksalad",[9]; [18],0
same,"Plant response rating, Rice",rice (Oryza sativa); [15],0
same,"Plant response rating, Rice",rice (Oryza sativa); [16],0
same,"Plant response rating, Rice",rice (Oryza sativa); [17],0
same,"Plant response rating, Rice",rice (Oryza sativa); [18],0
same,"Plant response rating, Sedge, Umbrella",[10]; [15],0
same,"Plant response rating, Sedge, Umbrella",[10]; [16],0
same,"Plant response rating, Sedge, Umbrella",[10]; [17],0
same,"Plant response rating, Sedge, Umbrella",[10]; [18],0
Cc1cc(-c2ccc(C(F)(F)F)cc2)nn1-c1c(O)c(C(F)(F)F)nn(C)c1=O [Compound 42],"Plant response rating, Barnyardgrass",[1]; [11],0
same,"Plant response rating, Barnyardgrass",[1]; [12],0
same,"Plant response rating, Barnyardgrass",[1]; [13],0
same,"Plant response rating, Barnyardgrass",[1]; [14],0
same,"Plant response rating, Corn",corn (Zea mays); [11],20
same,"Plant response rating, Corn",corn (Zea mays); [12],20
same,"Plant response rating, Corn",corn (Zea mays); [13],0
same,"Plant response rating, Corn",corn (Zea mays); [14],0
same,"Plant response rating, Foxtail, Giant",[2]; [11],0
same,"Plant response rating, Foxtail, Giant",[2]; [12],10
same,"Plant response rating, Foxtail, Giant",[2]; [13],0
same,"Plant response rating, Foxtail, Giant",[2]; [14],0
same,"Plant response rating, Crabgrass, Large",[3]; [11],0
same,"Plant response rating, Crabgrass, Large",[3]; [12],0
same,"Plant response rating, Crabgrass, Large",[3]; [13],0
same,"Plant response rating, Crabgrass, Large",[3]; [14],0
same,"Plant response rating, Morningglory",[4]; [11],0
same,"Plant response rating, Morningglory",[4]; [12],0
same,"Plant response rating, Morningglory",[4]; [13],0
same,"Plant response rating, Morningglory",[4]; [14],0
same,"Plant response rating, Pigweed",[5]; [11],0
same,"Plant response rating, Pigweed",[5]; [12],0
same,"Plant response rating, Pigweed",[5]; [13],0
same,"Plant response rating, Pigweed",[5]; [14],0
same,"Plant response rating, Velvetleaf",[6]; [11],0
same,"Plant response rating, Velvetleaf",[6]; [12],0
same,"Plant response rating, Velvetleaf",[6]; [13],0
same,"Plant response rating, Velvetleaf",[6]; [14],0
same,"Plant response rating, Wheat",[7]; [11],0
same,"Plant response rating, Wheat",[7]; [12],10
same,"Plant response rating, Wheat",[7]; [13],0
same,"Plant response rating, Wheat",[7]; [14],0
same,"Plant response rating, Barnyardgrass",[8]; [15],0
same,"Plant response rating, Barnyardgrass",[8]; [16],0
same,"Plant response rating, Barnyardgrass",[8]; [17],0
same,"Plant response rating, Barnyardgrass",[8]; [18],0
same,"Plant response rating, Ducksalad",[9]; [15],0
same,"Plant response rating, Ducksalad",[9]; [16],0
same,"Plant response rating, Ducksalad",[9]; [17],0
same,"Plant response rating, Ducksalad",[9]; [18],0
same,"Plant response rating, Rice",rice (Oryza sativa); [15],0
same,"Plant response rating, Rice",rice (Oryza sativa); [16],0
same,"Plant response rating, Rice",rice (Oryza sativa); [17],0
same,"Plant response rating, Rice",rice (Oryza sativa); [18],0
same,"Plant response rating, Sedge, Umbrella",[10]; [15],0
same,"Plant response rating, Sedge, Umbrella",[10]; [16],0
same,"Plant response rating, Sedge, Umbrella",[10]; [17],0
same,"Plant response rating, Sedge, Umbrella",[10]; [18],0
Cc1cc(-c2ccc(Cl)cc2)nn1-c1c(OS(=O)(=O)C2CC2)cnn(C)c1=O [Compound 49],"Plant response rating, Barnyardgrass",[1]; [19],0
same,"Plant response rating, Barnyardgrass",[1]; [11],0
same,"Plant response rating, Barnyardgrass",[1]; [20],0
same,"Plant response rating, Barnyardgrass",[1]; [13],0
same,"Plant response rating, Corn",corn (Zea mays); [19],0
same,"Plant response rating, Corn",corn (Zea mays); [11],0
same,"Plant response rating, Corn",corn (Zea mays); [20],0
same,"Plant response rating, Corn",corn (Zea mays); [13],0
same,"Plant response rating, Foxtail, Giant",[2]; [19],0
same,"Plant response rating, Foxtail, Giant",[2]; [11],20
same,"Plant response rating, Foxtail, Giant",[2]; [20],0
same,"Plant response rating, Foxtail, Giant",[2]; [13],80
same,"Plant response rating, Crabgrass, Large",[3]; [19],0
same,"Plant response rating, Crabgrass, Large",[3]; [11],20
same,"Plant response rating, Crabgrass, Large",[3]; [20],0
same,"Plant response rating, Crabgrass, Large",[3]; [13],40
same,"Plant response rating, Morningglory",[4]; [19],0
same,"Plant response rating, Morningglory",[4]; [11],0
same,"Plant response rating, Morningglory",[4]; [20],0
same,"Plant response rating, Morningglory",[4]; [13],0
same,"Plant response rating, Pigweed",[5]; [19],0
same,"Plant response rating, Pigweed",[5]; [11],0
same,"Plant response rating, Pigweed",[5]; [20],0
same,"Plant response rating, Pigweed",[5]; [13],0
same,"Plant response rating, Velvetleaf",[6]; [19],0
same,"Plant response rating, Velvetleaf",[6]; [11],0
same,"Plant response rating, Velvetleaf",[6]; [20],0
same,"Plant response rating, Velvetleaf",[6]; [13],0
same,"Plant response rating, Wheat",[7]; [19],0
same,"Plant response rating, Wheat",[7]; [11],0
same,"Plant response rating, Wheat",[7]; [20],0
same,"Plant response rating, Wheat",[7]; [13],0
same,"Plant response rating, Barnyardgrass",[8]; [15],0
same,"Plant response rating, Barnyardgrass",[8]; [16],0
same,"Plant response rating, Barnyardgrass",[8]; [17],0
same,"Plant response rating, Barnyardgrass",[8]; [18],0
same,"Plant response rating, Ducksalad",[9]; [15],0
same,"Plant response rating, Ducksalad",[9]; [17],0
same,"Plant response rating, Ducksalad",[9]; [18],0
same,"Plant response rating, Rice",rice (Oryza sativa); [15],0
same,"Plant response rating, Rice",rice (Oryza sativa); [16],0
same,"Plant response rating, Rice",rice (Oryza sativa); [17],0
same,"Plant response rating, Rice",rice (Oryza sativa); [18],0
same,"Plant response rating, Sedge, Umbrella",[10]; [15],0
same,"Plant response rating, Sedge, Umbrella",[10]; [16],0
same,"Plant response rating, Sedge, Umbrella",[10]; [17],0
same,"Plant response rating, Sedge, Umbrella",[10]; [18],0
